# Test results: ChEMBL document CHEMBL5500324, “The potential of marine-derived piperazine alkaloids: Sources, structures and bioactivities” (Eur J Med Chem, 2024)
# pIC50: −log10 of the molar value.
# Experiments:
# HeLa [1] = experiment: Cytotoxicity against human HeLa cells assessed as reduction in cell viability incubated for 24 hrs by CCK-8 assay; assay type: functional, cell-based
# A549 [2] = experiment: Cytotoxicity against human A549 cells assessed as reduction in cell viability incubated for 24 hrs by CCK-8 assay; assay type: functional, cell-based; conditions: A549, 24 h
# AGS = experiment: Antiproliferative activity against human AGS cells assessed as reduction in cell viability measured for 48 hrs by Cell-Titer Glo assay; assay type: functional, cell-based
# MCF7 = experiment: Antiproliferative activity against human MCF7 cells assessed as reduction in cell viability incubated for 72 hrs by MTT assay; assay type: functional, cell-based; conditions: MCF7, 72 h
# HCT-116 [3] = experiment: Antiproliferative activity against human HCT-116 cells assessed as reduction in cell growth; assay type: functional, cell-based
# A549 [4] = experiment: Antiproliferative activity against human A549 cells assessed as reduction in cell viability incubated for 72 hrs by CCK-8 assay; assay type: functional, cell-based; conditions: A549, 72 h
# PC-3 [5] = experiment: Cytotoxicity against human PC-3 cells assessed as reduction in cell growth incubated for 48 hrs by CCK-8 assay; assay type: functional, cell-based; conditions: PC-3, 48 h
# U-937 [6] = experiment: Cytotoxicity against human U-937 cells assessed as reduction in cell growth incubated for 48 hrs by CCK-8 assay; assay type: functional, cell-based; conditions: U-937, 48 h
# T47D = experiment: Antiproliferative activity against human T47D cells incubated for 48 hrs by MTT assay; assay type: functional, cell-based
# U-937 [7] = experiment: Cytotoxicity against human U-937 cells assessed as inhibition of cell growth; assay type: functional, cell-based
# HL-60 [8] = experiment: Cytotoxicity against human HL-60 cells assessed as reduction in cell growth; assay type: functional, cell-based
# NCI-H1975 = experiment: Cytotoxicity against human NCI-H1975 cells assessed as cell growth inhibition by MTT assay; assay type: functional, cell-based
# A549 [9] = experiment: Cytotoxicity against human A549 cells assessed as reduction in cell growth by MTT assay; assay type: functional, cell-based
# HCT-116 [10] = experiment: Cytotoxicity against human HCT-116 cells assessed as reduction in cell growth by MTT assay; assay type: functional, cell-based
# HL-60 [11] = experiment: Cytotoxicity against human HL-60 cells assessed as cell growth inhibition by MTT assay; assay type: functional, cell-based
# K562 = experiment: Cytotoxicity against human K562 cells assessed as cell growth inhibition by MTT assay; assay type: functional, cell-based
# [12] = Cytotoxicity against human HaCaT cells incubated for 24 hrs by MTS assay; assay type: toxicity, cell-based
# A549 [13] = experiment: Cytotoxicity against human A549 cells assessed as reduction in cell viability incubated for 48 hrs by Celltiter-Glo assay; assay type: functional, cell-based; conditions: A549, 48 h
# HCT-116 [14] = experiment: Cytotoxicity against human HCT-116 cells assessed as reduction in cell viability incubated for 48 hrs by Celltiter-Glo assay; assay type: functional, cell-based; conditions: HCT-116, 48 h
# U-937 [15] = experiment: Cytotoxicity against human U-937 cells assessed as reduction in cell viability incubated for 72 hrs by MTT assay; assay type: functional, cell-based; conditions: U-937, 72 h
# PC-3 [16] = experiment: Cytotoxicity against human PC-3 cells assessed as reduction in cell viability measured after 72 hrs by MTT assay; assay type: functional, cell-based; conditions: PC-3, 72 h
# L1210 = experiment: Cytotoxicity against mouse L1210 assessed as cell growth inhibition; assay type: functional, cell-based
# HeLa [17] = experiment: Cytotoxicity against human HeLa cells assessed as cell growth inhibition; assay type: functional, cell-based
compound,measurement,setting,value
CC[C@H](C)[C@]1(OC)NC(=O)[C@@H](Cc2ccccc2)N2C(=O)C3=C(NC21)OC=CC=C3 (some centres not stated),pIC50,HeLa [1],3.72
same,pIC50,A549 [2],4.00
CC(=O)O[C@H]1C=CC=C2C[C@@]34SS[C@]5(CC6=COC=C[C@H](OC(C)=O)[C@H]6N5C3=O)C(=O)N4[C@@H]21,pIC50,AGS,4.92
same,pIC50,MCF7,5.00
same,pIC50,HCT-116 [3],4.86
same,pIC50,A549 [4],4.92
COc1ccc2c3c(n(CC=C(C)C)c2c1)[C@H](C=C(C)C)N1C(=O)[C@@H]2CCCN2C(=O)[C@@]1(O)[C@H]3OC,pIC50,PC-3 [5],4.01
same,pIC50,U-937 [6],4.60
CC(C)=CCC/C(C)=C/COc1ccc(/C=C2/NC(=O)[C@H](C)N(O)C2=O)cc1,IC50,T47D,11.6 µg/mL
same,IC50,U-937 [7],11.6 µg/mL
same,IC50,HL-60 [8],11.6 µg/mL
CC(=O)O[C@H]1C=COC=C2C[C@@]34SS[C@]5(CC6=COC=C[C@H](OC(C)=O)[C@H]6N5C3=O)C(=O)N4[C@@H]21,pIC50,AGS,4.49
same,pIC50,MCF7,4.44
same,pIC50,HCT-116 [3],4.68
same,pIC50,A549 [4],4.64
CN1C(=O)[C@]23SSS[C@]1(C)C(=O)N2[C@@H]1Nc2ccccc2C1(C12c4ccccc4N[C@@H]1N1C(=O)[C@@]4(CO)SSS[C@]1(C(=O)N4C)[C@H]2O)[C@@H]3O (some centres not stated),pIC50,NCI-H1975,6.70
same,pIC50,A549 [9],6.40
same,pIC50,HCT-116 [10],6.40
same,pIC50,HL-60 [11],5.72
same,pIC50,K562,6.40
CN1C(=O)[C@]23SSS[C@]1(CO)C(=O)N2[C@H]1Nc2ccccc2C1(C12c4ccccc4N[C@H]1N1C(=O)[C@@]4(CO)SSS[C@]1(C(=O)N4C)[C@H]2O)[C@@H]3O (some centres not stated),pIC50,NCI-H1975,6.10
same,pIC50,A549 [9],6.15
same,pIC50,HCT-116 [10],6.52
same,pIC50,HL-60 [11],5.82
same,pIC50,K562,6.00
CCCCCCCCC[C@@H](CC(=O)NCCCCN)N1CC(=O)N(O)[C@H](Cc2ccccc2)C1=O,IC50 at 24 h,[12],37.5 µM
same,pIC50,A549 [13],4.42
same,pIC50,HCT-116 [14],4.40
CS[C@]1(CO)C(=O)N2[C@H]3C(=CC=C[C@@H]3O)C[C@@]2(SC)C(=O)N1C [BIS(DETHIO)BIS(METHYLTHIO)GLIOTOXIN],pIC50,U-937 [15],6.70
same,pIC50,PC-3 [16],6.41
CC1(C)C=Cc2c(ccc3c2NC(=O)[C@@]32C[C@@]34NC(=O)[C@]5(CCCN5C3=O)C[C@H]4C2(C)C)O1 [NOTOAMIDE B],IC50,L1210,36 µg/mL
same,IC50,HeLa [17],52 µg/mL
